This note sets out measurements from PubChem BioAssay (NCI).

This assay relates to MDA-MB-468 breast. Put plainly: NCI anticancer screen, dose series, 48 h.

Structures are written as SMILES.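 All cell lines were grown in 96-well plates and treated with compound for 48 hours. Here, GI50 denotes the concentration required for 50% inhibition of growth. At the TGI there is no net growth.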 Where only a bound is given, the exact number is not on record here.

`COCc1c(-c2ccc(NC(=O)Nc3cc(C(F)(F)F)ccc3F)c(F)c2)c2c(N)ncnn2c1CN1CCOCC1`: the GI50 is 1620 nM and the TGI turned out to be 5680 nM.
For the molecule `Nc1ncnc2c1ccn2[C@@H]1O[C@H]([C@H](O)c2ccc(Cl)c(F)c2)[C@@H](O)[C@H]1O`, the GI50 is 40700 nM and the TGI was greater than 100000 nM.
Consider `COc1cccc(Nc2nccc(-c3cnn4ncccc34)n2)c1`, for which the GI50 was 48.4 nM and the TGI was 106 nM.
`CCn1ccc(NS(=O)(=O)c2ccc(N)cc2)nc1=O`: the GI50 was greater than 100000 nM and the TGI is greater than 100000 nM.
With `COCCn1cc(-c2csc(-c3c[nH]c4ccc(Br)cc34)n2)c2cccnc21`, the GI50 is 2340 nM and the TGI worked out at 7630 nM.
Consider `Nc1c(F)cc(-c2nc3cc(F)ccc3[se]2)cc1Br`, for which the GI50 was 26 nM and the TGI stood at 93.3 nM.
Consider `CN(C)CCOC(=O)Nc1nc2ccc(Sc3ccccc3)cc2[nH]1`, for which the GI50 is 2020 nM and the TGI amounted to 7730 nM.
Regarding `CCCN1CCC(c2ccc(Nc3nc(Nc4cc(F)ccc4C(N)=O)c4cc[nH]c4n3)c(OC)c2)CC1`, the GI50 was 3470 nM and the TGI is 7390 nM.
With `Cc1cc(Cl)cc(Cc2cc(Cl)cc(C)c2O)c1O`, the GI50 is 2220 nM and the TGI was 6920 nM.
For the molecule `COc1cnc2c(c1)C(=O)c1c-2n(CCCN2CCNCC2)c(=O)c2cc([N+](=O)[O-])ccc12`, the GI50 was 257 nM and the TGI was 1350 nM.
For the molecule `COc1ccc(N(C)c2nc(Cl)nc3cnn(C)c23)cc1`, the GI50 was less than 10 nM and the TGI is greater than 100000 nM.
The corresponding values for `C[C@@H](Oc1cc(-n2cnc3ccc(OC[C@@H](O)CO)cc32)sc1C(N)=O)c1ccccc1Cl` are 15.9 nM and 6070 nM.
Regarding `CN1CCN(Cc2ccc(NC(=O)c3cncc(C#Cc4cnc(N)c5cnccc45)c3)cc2C(F)(F)F)CC1`, the GI50 is 285 nM and the TGI turned out to be 4520 nM.
The corresponding values for `COC(=O)[C@]12CC[C@@H](C)[C@H](C)[C@@H]1C1=CC[C@@H]3[C@@]4(C)C(C=O)=C[C@@](C)(COC(=O)/C=C/c5ccccc5)[C@@H]4[C@H](O)C[C@@]3(C)[C@]1(C)CC2` are 2590 nM and 7490 nM.
`CCN(Cc1ccc(F)cc1)c1ccc(CO)c(OC)c1`: the GI50 is 435 nM and the TGI is 2110 nM.
Consider `FC(F)(F)c1cc(Nc2ccc3cc(OCCCN4CCOCC4)ccc3n2)ccc1Cl`, for which the GI50 was 1910 nM and the TGI is 6750 nM.
In the case of `CC1=C([Se]CC(OC(=O)[C@@H](CO)NC(=O)OC(C)(C)C)C(=O)NCCCCCC(=O)OCc2ccccc2)C(=O)c2ccccc2C1=O` (stereo partly drawn), the GI50 is 1490 nM and the TGI was 3160 nM.
As to `COc1ccc(OC)c(/C=C/c2nc(SCc3ccccc3)n(-c3ccc(Cl)cc3)n2)c1`, the GI50 was 5120 nM and the TGI stood at 84500 nM.
For `C#Cc1cccc(NC(=O)c2ccc(NC(=O)CCl)cc2)c1`, in that order: 18800 nM and 76900 nM.
Take `C=CCc1c(O)c(C(=O)/C=C/c2ccccc2)c(OC)c2ccoc12`: the GI50 was 3070 nM and the TGI is 11400 nM.
With `COc1ccc(/C=C2\c3cc(OC)c(OC)c(OC)c3CC[C@@H]2O)cc1F`, the GI50 was 1160 nM and the TGI is greater than 100000 nM.
On to `CN(C)CCNC(=O)NC[C@H]1CC[C@@H]2[C@H](O1)c1cc(C(F)(F)F)ccc1N[C@H]2c1ccccc1`, for which the GI50 is 34.9 nM and the TGI came to 312 nM.
Take `Cc1nccc2c3ccc(OCc4cn(-c5ccc(Cl)cc5)nn4)cc3n(CC(C)C)c12`: the GI50 is 968 nM and the TGI stood at 12000 nM.
For the molecule `N#CC1C(=O)NC(c2ccccc2[N+](=O)[O-])c2sc3c(F)cccc3c21` (stereo not drawn), the GI50 is 108 nM and the TGI worked out at 283 nM.
On to `CC1(C)N=C(N)N=C(N)N1c1cccc(Br)c1`, for which the GI50 is 400 nM and the TGI was greater than 85100 nM.
Regarding `Cc1ccc(S(=O)(=O)Nc2ccc(-c3cc(-c4cccc(F)c4)c(C#N)c(N)n3)cc2)cc1`, the GI50 is 1720 nM and the TGI was found to be 3760 nM.
For `CCC(=O)Nc1cc(Nc2cc(NC3CC3)n3ncc(C#N)c3n2)ccc1C`, in that order: 1160 nM and 4060 nM.
For the molecule `Cc1ccc(S(=O)(=O)N2CCc3ccc(O)c4c3C2Cc2ccc3c(c2-4)OCO3)cc1` (stereo not drawn), the GI50 was 743 nM and the TGI was determined as 7490 nM.
Consider `CN1CCN(Cc2cc(NC(=O)c3cccc(C#Cc4cccc5[nH]nc(N)c45)c3)cc(C(F)(F)F)c2)CC1`, for which the GI50 was 1750 nM and the TGI was found to be 3350 nM.
Turning to `O=[N+]([O-])c1ccc(Sc2ccncn2)c([N+](=O)[O-])c1`, the GI50 was 982 nM and the TGI worked out at 3780 nM.
Regarding `COC1=CC(=O)c2nc(Cl)ccc2C1=O`, the GI50 was 1360 nM and the TGI was 2670 nM.
For the molecule `CNC(=O)c1cc(Oc2ccc3c(c2)sc2nc(-c4ccc(N(C)C)cc4)cn23)ccn1`, the GI50 was 300 nM and the TGI is greater than 50000 nM.
As to `CN(C)c1ccc(N=C2C=CC(=O)c3ccccc32)cc1`, the GI50 is 2150 nM and the TGI worked out at 6050 nM.
Turning to `C=C1C(=O)O[C@H]2[C@H]1CC/C(COC(=O)NCCCCCCCCNC(=O)OC/C1=C/CC[C@@]3(C)O[C@H]3[C@H]3OC(=O)C(=C)[C@@H]3CC1)=C\CC[C@@]1(C)O[C@@H]21`, the GI50 is 191 nM and the TGI came to 462 nM.
